# Test system: chinchilla model of acute noise-induced hearing loss
# Assay: chinchilla model of acute noise-induced hearing loss, auditory brainstem response thresholds
# Type: in vivo
# Conditions: 60 mg/kg intraperitoneal, doses 12 hours apart, five pre- and five post-noise, 105 dB SPL noise centered at 4 kHz for 6 hours, 21 days after noise exposure, 2, 4, 6, 8 kHz, p<0.01
# Source text: The otoprotective efficacy (i.e. the ability to prevent or reduce the development of permanent acute noise-induced hearing loss) of an exemplary Kv3 modulator, Example 64 described within WO2011069951A1 ((5R)-5-ethyl-5-methyl-3-[2-({4-methyl-3-[(trifluoromethyl)oxy]phenyl}oxy)-5-pyrimidinyl]-2,4-imidazolidinedione), referred to herein as “COMPOUND X”, was investigated using a chinchilla model of acute noise-induced hearing loss, as follows:
# Subjects comprised male, 3 year old chinchillas (Laniger), 10 animals per group. Chinchillas were housed in the study facility for a minimum of 5 days prior to noise exposure. Food and water were available ad libitum. Animals were maintained at 21° C. on a 12/12 light/dark cycle. […]
# Auditory brainstem responses (ABRs) were collected prior to noise exposure and 21 days after noise exposure. […] Thresholds were measured in response to tone-bursts with 1 ms rise/fall and a 0 ms plateau gated by a Blackman envelope and centred at the frequencies of 2, 4, 6 and 8 kHz, presented at 30/s. […]
# The thresholds for ABRs at the four different sound frequencies at day 21 post-noise exposure were compared to the thresholds at baseline, prior to noise exposure in order to determine a threshold shift for each animal. The data were then analysed using a 2-way ANOVA, with treatment and frequency as main factors.
smiles,measurement,value
"CC[C@@]1(C)NC(=O)N(c2cnc(Oc3ccc(C)c(OC(F)(F)F)c3)nc2)C1=O [COMPOUND X, (5R)-5-ethyl-5-methyl-3-[2-({4-methyl-3-[(trifluoromethyl)oxy]phenyl}oxy)-5-pyrimidinyl]-2,4-imidazolidinedione]",permanent threshold shift in ABRs,significantly reduced

# — patent publication US9669030B2, “Hydantoin derivatives as Kv3 inhibitors” (AUTIFONY THERAPEUTICS LIMITED, priority 2012, dated 2017)
